In EP1105395B1, “PHOTOCYCLIZED RAPAMYCINS” (priority 1998, dated 2000):
Values after ≈ are worked out from the molar mass of the structure shown. Read-outs that look alike come from different tables or passages of the source.

Legend:
Test in all cases: Antifungal activity, microtiter broth dilution MIC
Assay type in all cases: cell-based
[1] = test system: Candida zeylanoided; settings: Candida zeylanoided ID 94-15, 35 °C, 24-48 hours
Method: (§1) Antifungal activity for the compounds of this invention was established by evaluating a representative compound of this invention (Compound I) against several strains of fungi. Briefly the following procedure was used to evaluate such activity. A 96 U-bottom microtiter plate was filled (50 µl/well) with RPMI 1640. The compounds to be evaluated were placed in appropriate wells, and serial diluted in successive wells to provide 11 dilutions. The concentrations ranged from 64 through 0.06 µg/ml. An adjusted inoculum of fungi (50 µl) was added to each well and the plates were incubated at 35 °C for 24-48 hours. […]

[2] = test system: Cryptococcus neoformans; settings: Cryptococcus neoformans ID ATCC 90112, 35 °C, 24-48 hours
Method: as §1

[3] = test system: Filobasidiella neoformans; settings: Filobasidiella neoformans ID ATCC 7472, 35 °C, 24-48 hours
Method: as §1

[4] = test system: Candida parapsilosis; settings: 35 °C, 24-48 hours
Method: as §1

[5] = test system: Candida krussii; settings: Candida krussii ID 94-2, 35 °C, 24-48 hours
Method: as §1

[6] = test system: Candida lusitaniae; settings: Candida lusitaniae ID 94-3, 35 °C, 24-48 hours
Method: as §1

[7] = test system: Candida glabrata; settings: Candida glabrata ID ATCC 90030, 35 °C, 24-48 hours
Method: as §1

[8] = test system: Candida albicans; settings: 35 °C, 24-48 hours
Method: as §1

[9] = test system: Candida tropicalis; settings: 35 °C, 24-48 hours
Method: as §1

[10] = test system: Candida pseudotropicalis; settings: Candida pseudotropicalis ID ATCC 28838, 35 °C, 24-48 hours
Method: as §1

[11] = test system: Aspergillus flavus; settings: Aspergillus flavus ID ATCC 12963, 35 °C, 24-48 hours
Method: as §1

[12] = test system: Candida rugosa; settings: Candida rugosa ID 94-10, 35 °C, 24-48 hours
Method: as §1

[13] = test system: Aspergillus fumigatus; settings: Aspergillus fumigatus ID ATCC 26933, 35 °C, 24-48 hours
Method: as §1

[14] = test system: Aspergillus niger; settings: Aspergillus niger ID S-430, 35 °C, 24-48 hours
Method: as §1

[15] = test system: Saccharomyces cerevisiae; settings: Saccharomyces cerevisiae ID ATCC 2601, 35 °C, 24-48 hours
Method: as §1

[16] = Cryptococcus neoformans, ATCC7472, read-out: MIC
[17] = Lodderomyces parapsilosis, ATCC90018, Candida parapsilosis ID ATCC 90018, read-out: MIC
[18] = Lodderomyces parapsilosis, Candida parapsilosis ID 94-8, read-out: MIC
[19] = Lodderomyces parapsilosis, Candida parapsilosis ID 94-9, read-out: MIC
[20] = Clavispora lusitaniae, read-out: MIC
[21] = Nakaseomyces glabratus, ATCC90030, read-out: MIC
[22] = Candida albicans, ATCC90028, Candida albicans ID ATCC 90028, read-out: MIC
[23] = Candida albicans, Candida albicans ID 94-1, read-out: MIC
[24] = Candida albicans, Candida albicans ID 1063, read-out: MIC
[25] = Candida albicans, Candida albicans ID 1117, read-out: MIC
[26] = Candida albicans, Candida albicans ID C-83, read-out: MIC
[27] = Candida tropicalis ID 94-14, read-out: MIC
[28] = Kluyveromyces marxianus, ATCC28838, read-out: MIC

## OC(Cn1cncn1)(Cn1cncn1)c1ccc(F)cc1F [Fluconazole]
[1]; read-out: MIC
  MIC: ≥ 16 µg/mL
[2]; ATCC90112, read-out: MIC
  MIC: 8 µg/mL (≈ 26.1 µM)
[3]; [16]
  MIC: 16 µg/mL (≈ 52.2 µM)
[4]; [17]
  MIC: 0.5 µg/mL (≈ 1.63 µM)
[4]; [18]
  MIC: 0.5 µg/mL (≈ 1.63 µM)
[4]; [19]
  MIC: 0.5 µg/mL (≈ 1.63 µM)
[5]; read-out: MIC
  MIC: ≥ 16 µg/mL
[6]; [20]
  MIC: 1 µg/mL (≈ 3.27 µM)
[7]; [21]
  MIC: 4 µg/mL (≈ 13.1 µM)
[8]; [22]
  MIC: ≥ 16 µg/mL
[8]; [23]
  MIC: ≥ 16 µg/mL
[8]; [24]
  MIC: 4 µg/mL (≈ 13.1 µM)
[8]; [25]
  MIC: 8 µg/mL (≈ 26.1 µM)
[8]; [26]
  MIC: ≥ 16 µg/mL
[9]; Candida tropicalis ID 94-13
  MIC: ≥16 µg/mL
[9]; [27]
  MIC: ≥ 16 µg/mL
[10]; [28]
  MIC: ≤ 0.12 µg/mL
[11]; ATCC12963, read-out: MIC
  MIC: > 16 µg/mL
[12]; Diutina rugosa, read-out: MIC
  MIC: 2 µg/mL (≈ 6.53 µM)
[13]; ATCC26933, read-out: MIC
  MIC: > 16 µg/mL
[14]; read-out: MIC
  MIC: > 16 µg/mL
[15]; ATCC2601, read-out: MIC
  MIC: 8 µg/mL (≈ 26.1 µM)

## Clc1ccc(COC(Cn2ccnc2)c2ccc(Cl)cc2Cl)c(Cl)c1 (stereo not drawn) [Miconazole]
[1]; read-out: MIC
  MIC: 0.25 µg/mL (≈ 0.601 µM)
[2]; ATCC90112, read-out: MIC
  MIC: ≤ 0.12 µg/mL
[3]; [16]
  MIC: 0.25 µg/mL (≈ 0.601 µM)
[4]; [17]
  MIC: ≤ 0.12 µg/mL
[4]; [18]
  MIC: 0.25 µg/mL (≈ 0.601 µM)
[4]; [19]
  MIC: 0.5 µg/mL (≈ 1.2 µM)
[5]; read-out: MIC
  MIC: 2 µg/mL (≈ 4.81 µM)
[6]; [20]
  MIC: ≤ 0.12 µg/mL
[7]; [21]
  MIC: ≤ 0.12 µg/mL
[8]; [22]
  MIC: 0.5 µg/mL (≈ 1.2 µM)
[8]; [23]
  MIC: 8 µg/mL (≈ 19.2 µM)
[8]; [24]
  MIC: 1 µg/mL (≈ 2.4 µM)
[8]; [25]
  MIC: 1 µg/mL (≈ 2.4 µM)
[8]; [26]
  MIC: 8 µg/mL (≈ 19.2 µM)
[9]; Candida tropicalis ID 94-13
  MIC: 4 µg/mL (≈ 9.61 µM)
[9]; [27]
  MIC: 4 µg/mL (≈ 9.61 µM)
[10]; [28]
  MIC: ≤ 0.12 µg/mL
[11]; ATCC12963, read-out: MIC
  MIC: 0.5 µg/mL (≈ 1.2 µM)
[12]; Diutina rugosa, read-out: MIC
  MIC: ≤ 0.12 µg/mL
[13]; ATCC26933, read-out: MIC
  MIC: 1 µg/mL (≈ 2.4 µM)
[14]; read-out: MIC
  MIC: 4 µg/mL (≈ 9.61 µM)
[15]; ATCC2601, read-out: MIC
  MIC: ≤ 0.12 µg/mL

## C[C@@H]1[C@H](O)[C@@H](C)/C=C/C=C/CC/C=C/C=C/C=C/C=C/C(O[C@H]2O[C@H](C)[C@@H](O)[C@H](N)[C@@H]2O)CC2O[C@](O)(CC(O)C(O)CCC(O)CC(O)CC(O)CC(=O)O[C@H]1C)CC(O)C2C(=O)O (stereo partly drawn) [Nystatin]
[1]
  MIC: 1 µg/mL (≈ 1.08 µM)
[2]
  MIC: 0.5 µg/mL (≈ 0.54 µM)
[3]
  MIC: 0.5 µg/mL (≈ 0.54 µM)
[4]; Candida parapsilosis ID 94-8
  MIC: 1 µg/mL (≈ 1.08 µM)
[4]; Candida parapsilosis ID 94-9
  MIC: 1 µg/mL (≈ 1.08 µM)
[4]; Candida parapsilosis ID ATCC 90018
  MIC: 1 µg/mL (≈ 1.08 µM)
[5]
  MIC: 2 µg/mL (≈ 2.16 µM)
[6]
  MIC: 1 µg/mL (≈ 1.08 µM)
[7]
  MIC: 1 µg/mL (≈ 1.08 µM)
[8]; Candida albicans ID 94-1
  MIC: 2.0 µg/mL (≈ 2.16 µM)
[8]; Candida albicans ID 1063
  MIC: 2 µg/mL (≈ 2.16 µM)
[8]; Candida albicans ID 1117
  MIC: 1 µg/mL (≈ 1.08 µM)
[8]; Candida albicans ID ATCC 90028
  MIC: 1 µg/mL (≈ 1.08 µM)
[8]; Candida albicans ID C-83
  MIC: 2 µg/mL (≈ 2.16 µM)
[9]; Candida tropicalis ID 94-13
  MIC: 1 µg/mL (≈ 1.08 µM)
[9]; Candida tropicalis ID 94-14
  MIC: 2 µg/mL (≈ 2.16 µM)
[10]
  MIC: 1 µg/mL (≈ 1.08 µM)
[11]
  MIC: ≥16 µg/mL
[12]
  MIC: 2 µg/mL (≈ 2.16 µM)
[13]
  MIC: 1 µg/mL (≈ 1.08 µM)
[14]
  MIC: 4 µg/mL (≈ 4.32 µM)
[15]
  MIC: 2 µg/mL (≈ 2.16 µM)
